According to patent publication EP4813980A1, “EP300/CBP REGULATOR, AND PREPARATION METHOD THEREFOR AND USE THEREOF” (Miracure Biotechnology Limited, priority 2023, dated 2025):

What was measured:
22RV1 cells = test: Cell growth inhibition, CellTiter-Glo, 72 h; assay type: cell-based; settings: 72 h culture, mean of N=2
Description: (§1) 22RV1, vCap, MM1S and OPM-2 cells were cultured in RPMI-1640 medium (10% fetal bovine serum and 100 units of penicillin/streptomycin dual-antibody per mL were added to RPMI-1640) in a cell incubator at 37°C with 5% CO2, respectively. Cells in logarithmic growth phase were seeded into 96-well cell culture plates at 5×10^3 cells/100 µL/well and cultured overnight. Active compounds dissolved in DMSO at different concentrations were added with a final concentration of 0.5% DMSO. 1% Tween 20 was used as positive control and 0.5% DMSO was used as negative control. After 72 h of culture, an equal volume of CellTiter-Glo was added to each well, mixed by shaking for 2 min, and left standing at room temperature for 10 min. […] signal values were read with a microplate reader. Data were analyzed and graphs were generated using Prism 7.0. The values shown are mean ± SEM (N=2). […] The formula for inhibition rate is as follows: % Inhibition = (Icompound−IZPE)/(IHPE−IZPE) × 100 [formula]
(§2) The X-axis is compound concentration (nM), and the Y-axis is % Inhibition.

vCap cells = test: Cell growth inhibition, CellTiter-Glo, 72 h; assay type: cell-based; settings: 72 h culture, mean of N=2
Description: as §1, §2

Compound	IC50 (22RV1 cells; Homo sapiens) [nM]	IC50 (vCap cells; Homo sapiens) [nM]	further results
CNC(=O)N1CCc2cc(C3CCN(Cc4ccc(COc5cccc6c5CN(C5CCC(=O)NC5=O)C6=O)cc4)CC3)cc(N3CCCc4cc(-c5cnn(C)c5)c(C(F)F)cc43)c2C1 (stereo not drawn) [Compound 2015, 8-(7-(difluoromethyl)-6-(1-methyl-1H-pyrazol-4-yl)-3,4-dihydroquinolin-1(2H)-yl)-6-(1-(4-(((2-(2,6-dioxopiperidin-3-yl)-1-oxoisoindolin-4-yl)oxy)methyl)benzyl)piperidin-4-yl)-N-methyl-3,4-dihydroisoquinoline-2(1H)-carboxamide]	0.05	0.01	
C=CS(=O)(=O)N[C@H]1CC[C@H](n2c([C@@H]3CCCC(=O)N3c3ccc(F)c(F)c3)nc3cc(-c4c(C)noc4C)ccc32)CC1 [Compound 1370]	1610		
CC(=O)N1Cc2cc(C3CCN(C(=O)Cn4cc(COc5cccc6c5CN(C5CCC(=O)NC5=O)C6=O)nn4)CC3)cc(N3CCCc4cc(-c5cnn(C)c5)c(C(F)F)cc43)c2C1 (stereo not drawn) [Compound 2046]	14		
3-{5-[8-(4-{2-acetyl-7-[7-(difluoromethyl)-6-(1-methylpyrazol-4-yl)-3,4-dihydro-2H-quinolin-1-yl]-1,3-dihydroisoindol-5-yl}piperidin-1-yl)-8-oxo-1-yn-1-yl]-3-methyl-2-oxo-1,3-benzodiazol-1-yl}piperidine-2,6-dione [Compound 2030]			IC50 (22RV1 cells): 0.34 nM; IC50 (vCap cells): 0.1 nM
CC(=O)N1Cc2cc(C3CCN(Cc4ccc(COc5cccc6c5CN(C5CCC(=O)N(COC(=O)CN)C5=O)C6=O)cc4)CC3)cc(N3CCCc4cc(-c5cnn(C)c5)c(C(F)F)cc43)c2C1 (stereo not drawn) [Compound 2064, (3-(4-((4-((2-acetyl-7-(7-(difluoromethyl)-6-(1-methyl-1H-pyrazol-4-yl)-3,4-dihydroquinolin-1(2H)-yl)isoindol-5-yl)piperidin-1-yl)methyl)benzyl)oxy)-1-oxoisoindolin-2-yl)-2,6-dioxopiperidin-1-yl)methyl glycinate]	0.23	0.35	
CC(=O)N1Cc2cc(C3CCN(CC4CCN(CCCc5cccc6c5C(=O)N(C5CCC(=O)NC5=O)C6=O)CC4)CC3)cc(N3CCCc4cc(-c5cnn(C)c5)c(C(F)F)cc43)c2C1 (stereo not drawn) [Compound 2020]	1.87	0.53	
CC(=O)N1Cc2cc(C3CCN(CCN4CCC(CNc5cccc6c5C(=O)N(C5CCC(=O)NC5=O)C6=O)CC4)CC3)cc(N3CCCc4cc(-c5cnn(C)c5)c(C(F)F)cc43)c2C1 (stereo not drawn) [Compound 2019]	2.43	1.25	
CC(=O)N1Cc2cc(C3CCN(CC4CCN(CCOc5ccc(N6CCC(=O)NC6=O)cc5)CC4)CC3)cc(N3CCCc4cc(-c5cnn(C)c5)c(C(F)F)cc43)c2C1 [Compound 2072]	2020		
CC(=O)N1CCc2cc(C3CCN(C(=O)CCCCCCCNc4ccc5c(c4)C(=O)N(C4CCC(=O)NC4=O)C5=O)CC3)cc(N3CCCc4cc(-c5cnn(C)c5)c(C(F)F)cc43)c2C1 (stereo not drawn) [Compound 2025, 5-[[8-[4-[2-acetyl-8-[7-(difluoromethyl)-6-(1-methylpyrazol-4-yl)-3,4-dihydro-2H-quinolin-1-yl]-3,4-dihydro-1H-isoquinolin-6-yl]-1-piperidinyl]-8-oxooctyl]amino]-2-(2,6-dioxo-3-piperidinyl)isoindoline-1,3-dione]	3890	7530	
CC(=O)N1Cc2cc(C3CCN(C(=O)CCCCCCNc4cccc5c4n(C)c(=O)n5C4CCC(=O)NC4=O)CC3)cc(N3CCCc4cc(-c5cnn(C)c5)c(C(F)F)cc43)c2C1 (stereo not drawn) [Compound 2007]	0.04	0.01	
CC#CC(=O)N1CCC(n2nc(N3CCCc4cc(-c5cnn(C)c5)c(C(F)F)cc43)c3c2CCN(C(=O)NC)C3)CC1 [Compound 1376]	2650		
COC(=O)N1CCc2cc(C3CCN(C(=O)CCCCCCCNc4ccc5c(c4)C(=O)N(C4CCC(=O)NC4=O)C5=O)CC3)cc(N3CCCc4cc(-c5cnn(C)c5)c(C(F)F)cc43)c2C1 (stereo not drawn) [Compound 2026, methyl 8-[7-(difluoromethyl)-6-(1-methylpyrazol-4-yl)-3,4-dihydro-2H-quinolin-1-yl]-6-[1-[8-[[2-(2,6-dioxo-3-piperidinyl)-1,3-dioxoisoindolin-5-yl]amino]octanoyl]-4-piperidinyl]-3,4-dihydro-1H-isoquinoline-2-carboxylate]	22.4		
CC(=O)N1Cc2cc(C3CCN(C(=O)CCCCCCCCNc4ccc5c(c4)n(C)c(=O)n5C4CCC(=O)NC4=O)CC3)cc(N3CCCc4cc(-c5cnn(C)c5)c(C(F)F)cc43)c2C1 (stereo not drawn) [Compound 2009]	0.04	0.01	
CC(=O)N1Cc2cc(C3CCN(CC4CCN(c5cccc6c5CN(C5CCC(=O)NC5=O)C6=O)CC4)CC3)cc(N3CCCc4cc(-c5cnn(C)c5)c(C(F)F)cc43)c2C1 (stereo not drawn) [Compound 2047]	> 10000		
CC(=O)N1Cc2cc(C3CCN(CCN4CCC(CCc5cccc6c5C(=O)N(C5CCC(=O)NC5=O)C6=O)CC4)CC3)cc(N3CCCc4cc(-c5cnn(C)c5)c(C(F)F)cc43)c2C1 (stereo not drawn) [Compound 2005]	7.7		
CNC(=O)N1Cc2cc(C3CCN(C(=O)CCOCCOCCOCCOCCNc4ccc5c(c4)C(=O)N(C4CCC(=O)NC4=O)C5=O)CC3)cc(N3CCCc4cc(-c5cnn(C)c5)c(C(F)F)cc43)c2C1 (stereo not drawn) [Compound 2023]	434		
CNC(=O)N1CCc2cc(C3CCN(C(=O)CCCCCCNc4ccc5c(c4)n(C)c(=O)n5C4CCC(=O)NC4=O)CC3)cc(N3CCCc4cc(-c5cnn(C)c5)c(C(F)F)cc43)c2C1 (stereo not drawn) [Compound 2028, 8-[7-(difluoromethyl)-6-(1-methylpyrazol-4-yl)-3,4-dihydro-2H-quinolin-1-yl]-6-[1-[7-[[1-(2,6-dioxo-3-piperidinyl)-3-methyl-2-oxo-benzimidazol-5-yl]amino]heptanoyl]-4-piperidinyl]-N-methyl-3,4-dihydro-1H-isoquinoline-2-carboxamide]	0.1	0.26	
CC(=O)N1Cc2cc(C3CCN(C(=O)CCCCCCNc4ccc5c(c4)n(C)c(=O)n5C4CCC(=O)NC4=O)CC3)cc(N3CCCc4cc(-c5cnn(C)c5)c(C(F)F)cc43)c2C1 (stereo not drawn) [Compound 2027]	0.04	0.01	
CC(=O)N1Cc2cc(C3CCN(CCN4CCOC(CNc5cccc6c5C(=O)N(C5CCC(=O)NC5=O)C6=O)C4)CC3)cc(N3CCCc4cc(-c5cnn(C)c5)c(C(F)F)cc43)c2C1 (stereo not drawn) [Compound 2001]	0.06	0.154	
CC(=O)N1Cc2cc(C3CCC(N(C)C4CCN(c5ccc6c(c5)CN(C5CCC(=O)NC5=O)C6=O)CC4)CC3)cc(N3CCCc4cc(-c5cnn(C)c5)c(C(F)F)cc43)c2C1 (stereo not drawn) [Compound 2079, 3-(5-((4-((2-acetyl-7-(7-(difluoromethyl)-6-(1-methyl-1H-pyrazol-4-yl)-3,4-dihydroquinolin-1(2H)-yl)isoindolin-5-yl)cyclohexyl)(methyl)amino)piperidin-1-yl)-1-oxoisoindolin-2-yl)piperidine-2,6-dione]	3.76		
CC(=O)N1Cc2cc(C3CCN(CC4CCN(CCNc5cccc6c5CN(C5CCC(=O)NC5=O)C6=O)CC4)CC3)cc(N3CCCc4cc(-c5cnn(C)c5)c(C(F)F)cc43)c2C1 (stereo not drawn) [Compound 2060]	6.8		
CNC(=O)N1CCc2cc(C3CCN(CCN4CCC(CCc5cccc6c5C(=O)N(C5CCC(=O)NC5=O)C6=O)CC4)CC3)cc(N3CCCc4cc(-c5cnn(C)c5)c(C(F)F)cc43)c2C1 (stereo not drawn) [Compound 2014, 8-(7-(difluoromethyl)-6-(1-methylpyrazol-4-yl)-3,4-dihydro-2H-quinolin-1-yl)-6-[1-[2-[4-[2-[2-(2,6-dioxo-3-piperidinyl)-1,3-dioxoisoindolin-4-yl]ethyl]-1-piperidinyl]ethyl]-4-piperidinyl]-N-methyl-3,4-dihydro-1H-isoquinoline-2-carboxamide]		11	
CC(=O)N1Cc2cc(C3CCN(Cc4ccc(CCOc5cccc6c5CN(C5CCC(=O)NC5=O)C6=O)nc4)CC3)cc(N3CCCc4cc(-c5cnn(C)c5)c(C(F)F)cc43)c2C1 (stereo not drawn) [Compound 2035, 3-[4-(2-{5-[(4-{2-acetyl-7-[7-(difluoromethyl)-6-(1-methylpyrazol-4-yl)-3,4-dihydro-2H-quinolin-1-yl]-1,3-dihydroisoindol-5-yl}piperidin-1-yl)methyl]pyridin-2-yl}ethoxy)-1-oxo-3H-isoindol-2-yl]piperidine-2,6-dione]	2.6		
C=CC(=O)N1CCC(c2cc3c(c(N4CCCc5cc(-c6cnn(C)c6)c(C(F)F)cc54)c2)CN(C(=O)NC)CC3)CC1 [Compound 1346, 6-(1-acryloylpiperidin-4-yl)-8-(7-(difluoromethyl)-6-(1-methyl-1H-pyrazol-4-yl)-3,4-dihydroquinolin-1(2H)-yl)-N-methyl-3,4-dihydroisoquinoline-2(1H)-carboxamide]	81800		
CC(=O)N1Cc2cc(C3CCN(CCN4CCC(CNc5cccc6c5CN(C5CCC(=O)NC5=O)C6=O)CC4)CC3)cc(N3CCCc4cc(-c5cnn(C)c5)c(C(F)F)cc43)c2C1 (stereo not drawn) [Compound 2061]	3.48		
CC(=O)N1Cc2cc(C3CCN(C(=O)CN4Cc5cc6c(cc5C4)C(=O)N(C4CCC(=O)NC4=O)C6=O)CC3)cc(N3CCCc4cc(-c5cnn(C)c5)c(C(F)F)cc43)c2C1 (stereo not drawn) [Compound 2050]	5.25		
CC(=O)N1Cc2cc(C3CCN(CCN4Cc5cc6c(cc5C4)C(=O)N(C4CCC(=O)NC4=O)C6=O)CC3)cc(N3CCCc4cc(-c5cnn(C)c5)c(C(F)F)cc43)c2C1 (stereo not drawn) [Compound 2059]	9.42		
C=CC(=O)NC1CCC(n2c([C@@H]3CCCC(=O)N3c3ccc(F)c(F)c3)nc3cc(-c4c(C)noc4C)ccc32)CC1 (stereo partly drawn) [Compound 1371]			IC50 (22RV1 cells): 2090 nM
